Here are results for 1 compound from patent US7888527B2 (University of Virginia Patent Foundation, priority 2004, dated 2011).

“Also recorded” adds a separate entry of the source.

Experiment [1] has as its target T1, human S1P3 receptor (Homo sapiens, UniProt Q99500). As to the kind of experiment: Intracellular calcium mobilization, T24 cells transfected stably with human S1P3 receptor. It is filed as cell-based. The arrangement: expressed in transfected cells. As for the experimental part:
(§1) […] monolayers are co-transfected with the human S1P1, S1P2, S1P3 receptor encoding DNAs and the pIRESpuro2 plasmid DNA (Clontech, San Jose, Calif.,) using either Lipofectamine 2000 (Invitrogen, Carlsbad, Calif.) or FuGENE 6 (Roche Applied Science, Indianapolis, Ind.). Clonal populations expressing the puromycin acetyltransferase gene are selected by addition of puromycin (Sigma-Aldrich, St. Louis, Mo.) to the culture media. T24 cells are grown in monolayers at 37° C. in a 5% CO2/95% air atmosphere in growth media consisting of: 95% DMEM/F-12 medium and 10% charcoal/dextran stripped FBS.
A FlexStation™ fluorimeter (Molecular Devices, Menlo Park, Calif.) was used to measure intracellular calcium in native T24 cells and T24 cells transfected stably with either human S1P2 or human S1P3 receptor DNA. Cells were seeded (˜50,000 cells/well) in 96-well, clear bottom black microplates (Corning Costar Corp.) and left overnight at 37° C. The cells were dye-loaded with 4 μM Fluo-4AM ester in a loading buffer (Hank's Balanced Salt Solution, […], containing 20 mM HEPES, 0.1% fatty acid free BSA, and 2.5 mM probenecid) for 30 minutes at 37° C. After washing cell monolayers three times with phosphate buffered saline, loading buffer was added and the cells exposed to sets of compounds for 3 minutes at 25° C. in the FlexStation™. In all cases, each concentration of every compound was tested in at least triplicate. […] The cells were washed with phosphate buffered saline and exposed to compounds immediately, as described above.
(§2) Briefly, nonlinear analysis of the best-fit line generated by plotting the negative log of the EC50 values obtained from agonist dose-response curves, in the absence and presence of varying concentrations of antagonist, was plotted against the concentration of antagonist to give the Kb value.

Experiment [2] has as its target T2, human S1P1 receptor (Homo sapiens, UniProt P21453). In words: [γ-35S]GTP binding assay, HEK293T membranes (agonism and Schild antagonism). It is filed as biochemical. Further details: expressed in transfected cells; host or cells: HEK293T, transient transfection; membranes.
From the text: (§3) The appropriate receptor plasmid DNA (encoding human S1P1, human S1P2, human S1P3, human S1P4, human S1P5, human LPA1, human LPA2 or human LPA3 receptors) is mixed with equal amounts of expression plasmids encoding human Gi2α (for S1P3, a mutated (C352F) rat Gi2α is used), cow β1, and cow γ2 proteins, and these DNAs are used to transfect monolayers of HEK293T cells (where ‘T’ indicates expression of the SV-40 virus large T antigen) using the calcium phosphate precipitate method (7). After about 60 hours, cells are harvested, membranes prepared, aliquoted, and stored at −70° C. until use (8).
(§4) The [γ-^35S]GTP binding assay is performed as described previously (8). Membranes containing 1-5 μg of protein are incubated in 0.1 ml of binding buffer (in mM: HEPES/50, NaCl/100, MgCl2/10, pH 7.5) containing 5 μg of saponin, 10 μM GDP, 0.1 nM [γ-^35S]GTP (1200 Ci/mmol), and indicated lipid(s) for 30 min at 30° C. and collected using a Brandel Cell Harvester (Gaithersburg, Md.). Samples are then analyzed for bound radionuclide.
as §2
(§5) Statistical Analysis. The EC50 and IC50 values for all dose response curves were determined by nonlinear regression analysis of all data using the Graphpad Prism© program. The error associated with the data collected is reported as the standard error of the mean (S.E.M).

In experiment [3] the target is T1, human S1P3 receptor. The description is as above. It is filed as biochemical. The arrangement: expressed in transfected cells; host or cells: HEK293T, transient transfection; membranes.
From the text: as §3, §4, §2, §5

The target of experiment [4] is T2, human S1P1 receptor. As to the kind of experiment: Cell migration assay, T24 cells transfected stably with human S1P1 receptor. It is filed as cell-based. Further details: expressed in transfected cells. As for the experimental part:
as §1
Cell migration assays are performed using modified Boyden chambers (tissue culture-treated, 24-mm diameter, 10-μm thickness, 8-μm pores, Transwell®; Costar Corp., Cambridge, Mass.) containing polycarbonate membranes that are coated on the underside with 0.1% gelatin. The underside of the polycarbonate membranes is rinsed once with migration media (DMEM/F12 without Phenol Red and 0.1% fatty acid free BSA) and then immersed in the lower chamber containing two milliliters of migration media. T24 cells transfected stably with human S1P1 receptor DNA were grown in DMEM/F12 media containing charcoal/dextran stripped FBS and 10 μg/ml puromycin to 100% confluence in 150×2.5 mm tissue culture plates and serum starved at least 12 hours. Serum-starved cells were removed from culture dishes with 10× Trypsin-EDTA (Hanks' balanced salt solution containing 5 mM EDTA and 25 mM HEPES, pH 7.2, and 0.1% trypsin; Invitrogen, San Diego, Calif.), suspended in migration buffer and collected by centrifugation at 130×g for 5 minutes. The supernatant fluid was removed by aspiration and cell pellet resuspended in migration media (10^6 cells/ml). […] The non-migrating cells in the upper chamber were removed by aspiration and the migratory cells attached to the bottom surface of the membrane were isolated by incubation in 10× Trypsin-EDTA for 1 min at room temperature and gently tapping the plate to dislodge cells from the membrane. The mass of migratory cells per membrane was evaluated by combining 100 μl of cell suspension with an equal volume of CyQuant dye solution (3.0 ml of 2× lysis buffer and 15 μl CyQuant dye), and the resulting fluorescence quantified using the FlexStation™ fluorimeter (Molecular Devices, Menlo Park, Calif.). Each determination represents the average of two individual migration chambers. […] The monolayer was washed three times with phosphate buffered saline and processed immediately for the cell migration assay, as described above.

The target of another experiment is T3, S1P2 receptor (Homo sapiens, UniProt O95136).
T3 construct: expressed in transfected cells; host or cells: HEK293T, transient transfection; membranes
As to the kind of experiment: [γ-35S]GTP binding assay, HEK293T membranes. It is filed as biochemical.
From the text: as §3, §4, §5

Experiment [5] concerns LPA1-3 EDG-family receptors. In words: Activity at LPA receptors. Conditions: concentrations up to 30 μM. It is filed as biochemical, human.
From the text: as §3, §4

Where [6] appears, read: VPC23019 concentrations greater than 100 nM.
Setting [7] is: [γ-35S]GTP binding, S1P with increasing VPC23019, Lew and Angus regression.

T2 sequence (P21453 whole entry): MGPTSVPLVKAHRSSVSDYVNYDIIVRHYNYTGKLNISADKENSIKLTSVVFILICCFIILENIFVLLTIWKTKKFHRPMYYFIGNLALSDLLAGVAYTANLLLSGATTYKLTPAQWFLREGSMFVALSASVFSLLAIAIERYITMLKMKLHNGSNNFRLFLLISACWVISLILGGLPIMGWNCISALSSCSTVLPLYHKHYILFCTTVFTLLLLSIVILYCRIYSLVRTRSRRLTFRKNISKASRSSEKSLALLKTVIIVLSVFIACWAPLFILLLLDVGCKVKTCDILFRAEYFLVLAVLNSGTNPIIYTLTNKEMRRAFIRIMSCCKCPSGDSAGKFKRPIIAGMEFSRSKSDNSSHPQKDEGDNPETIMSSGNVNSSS
T3 sequence (O95136 whole entry): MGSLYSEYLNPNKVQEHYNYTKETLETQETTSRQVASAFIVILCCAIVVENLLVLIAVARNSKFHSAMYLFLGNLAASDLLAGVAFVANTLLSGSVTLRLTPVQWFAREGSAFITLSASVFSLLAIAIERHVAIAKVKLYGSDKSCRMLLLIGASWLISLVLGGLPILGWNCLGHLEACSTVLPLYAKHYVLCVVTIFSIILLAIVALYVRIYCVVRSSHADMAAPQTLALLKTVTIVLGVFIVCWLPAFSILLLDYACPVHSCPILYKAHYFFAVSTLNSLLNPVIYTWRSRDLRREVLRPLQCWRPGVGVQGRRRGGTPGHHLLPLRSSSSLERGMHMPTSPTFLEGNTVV
T1 sequence (Q99500 whole entry): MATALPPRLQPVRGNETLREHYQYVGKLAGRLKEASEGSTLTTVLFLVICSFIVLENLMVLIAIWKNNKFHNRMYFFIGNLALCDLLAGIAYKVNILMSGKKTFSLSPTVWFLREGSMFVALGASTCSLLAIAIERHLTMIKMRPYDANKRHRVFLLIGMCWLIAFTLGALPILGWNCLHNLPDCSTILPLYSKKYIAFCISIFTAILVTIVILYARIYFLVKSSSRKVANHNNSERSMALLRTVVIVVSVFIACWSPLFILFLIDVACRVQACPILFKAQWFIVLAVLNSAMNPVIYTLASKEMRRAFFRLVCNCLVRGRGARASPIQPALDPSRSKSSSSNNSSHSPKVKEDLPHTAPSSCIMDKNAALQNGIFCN

For the compound `CCCCCCCCc1cccc(NC(=O)[C@H](N)COP(=O)(O)O)c1` [VPC23019], the “Reversibility of antagonism after washout, Ca2+ mobilization” value on human S1P3 receptor [1] (10000 nM VPC23019 pre-treatment followed by washout) is “recovered fully”. Besides, at human S1P3 receptor [1] (T24-S1P3 cells), the “Competitive behaviour in calcium mobilization assay (nonlinear regression)” value is listed as “did not behave as a competitive antagonist”. The “Calcium mobilization by compound alone” value at human S1P3 receptor [1] (T24-S1P3 cells versus wild-type T24 cells) is “not a result of stimulation of the S1P3 receptor”. Besides, the “Agonist activity at the S1P1 receptor” value on human S1P1 receptor [2] is reported as “lacked agonist activity”. Also, the “pKb S1P1” value on human S1P1 receptor [2] (Schild analysis (Lew and Angus) of S1P curves in [γ-35S]GTP binding, ± S.E.M.) came out at 7.49±0.16. Also, at human S1P1 receptor [2] (setting [6]), the “Inverse agonism profile at S1P1” value is on record as “a profile suggesting inverse agonism”. For the same compound, on human S1P1 receptor [2] (setting [7]), the “Antagonism of S1P at the S1P1 receptor” value was “dose-dependent, parallel rightward shift; also recorded: competitive antagonist”. For the same compound, the Kb was 0.0324 µM on human S1P1 receptor [2] (read-out: pKb S1P1 (converted)) and 1.05 µM on human S1P3 receptor [3] (read-out: pKb S1P3 (converted)). The “Agonist efficacy class S1P1” value at human S1P1 receptor [2] (relative to S1P Emax) is “na (no agonist activity (<10% of S1P Emax))”. Besides, at human S1P3 receptor [3], the “Agonist activity at the S1P3 receptor” value is “lacked agonist activity”. In addition, the “Inverse agonism profile at S1P3” value at human S1P3 receptor [3] (setting [6]) was “a profile suggesting inverse agonism”. On human S1P3 receptor [3] (setting [7]), the “Antagonism of S1P at the S1P3 receptor” value is listed as “dose-dependent, parallel rightward shift; also recorded: competitive antagonist”. In addition, the “Agonist efficacy class S1P3” value on human S1P3 receptor [3] (relative to S1P Emax) is reported as “na (no agonist activity (<10% of S1P Emax))”. In addition, the “Blockade of VPC22277 (10 nM)-induced migration” value is on record as “Blockade” at human S1P1 receptor [4] (50 nM antagonist); “blockade” at human S1P1 receptor [4] (10, 100 and 1000 nM antagonist). On human S1P1 receptor [4] (10 μM VPC23019 pre-incubation 30 min, washed), the “Reversibility of antagonism after washout, cell migration” value is “recovered fully”. In addition, at human S1P1 receptor [4] (VPC22277 10 nM, VPC23019 1 nM-1000 nM), the “Migration of T24-S1P1 cells evoked by compound alone” value was “no migration was evoked and not”. At S1P2 receptor, the “Activity at the S1P2 receptor” value was “devoid of agonist activity”. For the same compound, the EC50 at S1P2 receptor (-log molar concentration giving 50% of maximal [γ-35S]GTP binding, ± S.E.M., read-out: pEC50 S1P2 (converted)) is above 10 µM. Moreover, the “Agonist or antagonist activity at the human S1P2 receptor” value at S1P2 receptor (concentrations up to 10 micromolar) is “inactive as either an agonist or antagonist”. In experiment [5], the “Agonist activity at LPA1-3 receptors” value is “neither agonist activity”.
